Measurements as given in ChEMBL document CHEMBL1201862, “PubChem BioAssay data set” (2004).
Each block holds one compound with its values, some of them ahead of it. Calls of active or inactive are those of the source.

Assays:
[1] = target: Testis-specific serine/threonine-protein kinase 2 (Homo sapiens, UniProt Q96PF2); format: functional;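 also: part of the Navigating the Kinome panel, target entry STK22B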
[2] = target: Serine/threonine-protein kinase MRCK alpha (Homo sapiens, UniProt Q5VT25); format: functional
[3] = target: Tyrosine-protein kinase Lyn (Homo sapiens, UniProt P07948); format: functional;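 also: lyn as one member of a kinase panel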
[4] = target: Cell division cycle 7-related protein kinase (Homo sapiens, UniProt O00311); format: functional;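 also: value obtained from a kinome-wide kinase panel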
[5] = target: cAMP-dependent protein kinase catalytic subunit PRKX (Homo sapiens, UniProt P51817); format: functional
[6] = target: Casein kinase I isoform delta (Homo sapiens, UniProt P48730); format: functional;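 also: measured as one member (CSNK1D) of a kinome panel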
Wee1-like protein kinase = Wee1-like protein kinase (Homo sapiens, UniProt P30291); experiment: Navigating the Kinome. Panel member name: WEE1; format: functional
[7] = target: Cyclin-dependent kinase 2 (Homo sapiens, UniProt P24941); format: functional;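 also: CDK2 measured as one member of a broad kinome profiling panel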
[8] = target: Macrophage-stimulating protein receptor (Homo sapiens, UniProt Q04912); experiment: Navigating the Kinome. Panel member name: MST1R; format: functional
[9] = target: 5'-AMP-activated protein kinase catalytic subunit alpha-1 (Homo sapiens, UniProt Q13131); format: functional
[10] = target: Mitogen-activated protein kinase 13 (Homo sapiens, UniProt O15264); format: functional
[11] = target: Mitogen-activated protein kinase 14 (Homo sapiens, UniProt Q16539); format: functional;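 also: part of a kinome-wide panel, MAPK14 entry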
[12] = target: Cyclin-dependent kinase 8 (Homo sapiens, UniProt P49336); experiment: Navigating the Kinome. Panel member name: CDK8; format: functional
[13] = target: Protein kinase C gamma type (Homo sapiens, UniProt P05129); format: functional
[14] = target: Glycogen synthase kinase-3 alpha (Homo sapiens, UniProt P49840); format: functional;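 also: GSK3A result taken from a broad kinome-wide kinase panel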
[15] = target: Mitogen-activated protein kinase kinase kinase 20 (Homo sapiens, UniProt Q9NYL2); format: functional
[16] = target: Calcium/calmodulin-dependent protein kinase type II subunit delta (Homo sapiens, UniProt Q13557); format: functional
Misshapen-like kinase 1 = Misshapen-like kinase 1 (Homo sapiens, UniProt Q8N4C8); format: functional;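 also: kinome panel screen with MINK as the panel member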
[17] = target: Vascular endothelial growth factor receptor 3 (Homo sapiens, UniProt P35916); format: functional;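 also: value from a kinome-wide profiling panel, with FLT4 as the panel member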
[18] = target: Lymphokine-activated killer T-cell-originated protein kinase (Homo sapiens, UniProt Q96KB5); format: functional;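 also: value comes from a kinase panel screen in which TOPK was one of the panel members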
[19] = target: Dual specificity tyrosine-phosphorylation-regulated kinase 3 (Homo sapiens, UniProt O43781); format: functional;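 also: measured as one member of a broad kinase panel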
[20] = target: Casein kinase I isoform gamma-1 (Homo sapiens, UniProt Q9HCP0); format: functional;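 also: measured as the CSNK1G1 member of a kinome profiling panel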
[21] = target: Mitogen-activated protein kinase 9 (Homo sapiens, UniProt P45984); format: functional;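 also: value from a kinome panel profiling assay, MAPK9 panel entry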
[22] = target: MAP kinase-activated protein kinase 3 (Homo sapiens, UniProt Q16644); format: functional;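 also: value comes from a kinome-wide profiling panel in which MAPKAPK3 is one of the panel members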
[23] = target: Protein kinase C iota type (Homo sapiens, UniProt P41743); format: functional;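 also: measured within a kinome-wide kinase panel, PRKCI as panel member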
[24] = target: RAC-alpha serine/threonine-protein kinase (Homo sapiens, UniProt P31749); format: functional;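 also: AKT1 affinity measured as one member of a kinome-wide kinase profiling panel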
[25] = target: Tyrosine-protein kinase Blk (Homo sapiens, UniProt P51451); format: functional;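 also: obtained as one member of a kinome-wide kinase assay panel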
[26] = target: Cyclin-dependent kinase 5 (Homo sapiens, UniProt Q00535); format: functional;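 also: CDK5 measured as one member of a kinase profiling panel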
[27] = target: Dual specificity tyrosine-phosphorylation-regulated kinase 4 (Homo sapiens, UniProt Q9NR20); format: functional
[28] = target: Receptor tyrosine-protein kinase erbB-4 (Homo sapiens, UniProt Q15303); format: functional;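 also: ERBB4 member of a kinome-wide kinase profiling panel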
[29] = target: Casein kinase II subunit alpha (Homo sapiens, UniProt P68400); format: functional
[30] = target: Cyclin-dependent kinase 1 (Homo sapiens, UniProt P06493); format: functional;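 also: Kinome-wide panel profiling, with the target listed as panel member CDC2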
[31] = target: Cyclin-dependent kinase 7 (Homo sapiens, UniProt P50613); format: functional;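 also: value comes from a kinome-wide kinase profiling panel in which CDK7 is one member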
[32] = target: RAC-gamma serine/threonine-protein kinase (Homo sapiens, UniProt Q9Y243); format: functional
[33] = target: cGMP-dependent protein kinase 1 (Homo sapiens, UniProt Q13976); format: functional;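 also: value from a kinome panel screen with PRKG1 as the panel member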
[34] = target: Mitogen-activated protein kinase kinase kinase kinase 5 (Homo sapiens, UniProt Q9Y4K4); format: functional;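 also: measured as one member of a kinome-spanning kinase panel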
[35] = target: Serine/threonine-protein kinase D3 (Homo sapiens, UniProt O94806); format: functional;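 also: determined within a kinase panel screen, with PRKCN as the panel member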
[36] = target: Cyclin-dependent kinase 9 (Homo sapiens, UniProt P50750); format: functional;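 also: value from the CDK9 entry of a kinome-spanning kinase panel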
[37] = target: Serine/threonine-protein kinase pim-1 (Homo sapiens, UniProt P11309); format: functional
[38] = target: Serine/threonine-protein kinase pim-2 (Homo sapiens, UniProt Q9P1W9); format: functional;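 also: value comes from a broad kinase panel profiling study in which PIM2 was one of the panel members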
Aspartyl aminopeptidase = target: T1, Aspartyl aminopeptidase (Plasmodium falciparum 3D7, UniProt Q8I2J3); experiment: Counterscreen for inhibitors of M1 and M17 aminopeptidases: QFRET-based biochemical high throughput dose response assay for inhibitors of the Plasmodium falciparum M18 Aspartyl Aminopeptidase (PFM18AAP). [Related PubChem assays: 1619 (Screening assay (M17LAP inhibitors).), 1445 (Screening assay (M1AAP inhibitors).)]
T1 sequence (Q8I2J3 whole entry): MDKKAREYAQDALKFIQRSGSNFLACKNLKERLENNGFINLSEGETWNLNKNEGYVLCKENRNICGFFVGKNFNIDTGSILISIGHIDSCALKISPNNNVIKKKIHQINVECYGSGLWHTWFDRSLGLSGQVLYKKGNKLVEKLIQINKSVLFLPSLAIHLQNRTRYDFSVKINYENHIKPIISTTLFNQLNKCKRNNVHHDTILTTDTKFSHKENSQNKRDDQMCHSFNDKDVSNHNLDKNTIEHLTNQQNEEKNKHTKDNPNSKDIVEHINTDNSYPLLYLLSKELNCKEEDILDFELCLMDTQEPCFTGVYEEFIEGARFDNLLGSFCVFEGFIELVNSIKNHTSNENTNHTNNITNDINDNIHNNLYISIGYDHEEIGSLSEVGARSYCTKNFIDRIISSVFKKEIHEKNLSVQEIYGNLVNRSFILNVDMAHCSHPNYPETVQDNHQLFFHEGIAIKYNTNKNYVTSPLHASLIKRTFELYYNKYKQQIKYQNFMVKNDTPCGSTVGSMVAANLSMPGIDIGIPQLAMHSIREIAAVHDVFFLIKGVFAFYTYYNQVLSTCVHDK

[39] = target: Multidrug resistance protein CDR2 (Candida albicans (strain SC5314 / ATCC MYA-2876) (Yeast), UniProt P78595); experiment: CaCDR2 efflux pump inhibitors in yeast, dose response, S. cerevisiae AD1-8u, singleplex, Cherry Pick1 hits (AID 588604); format: functional
Leucine aminopeptidase = target: T2, Leucine aminopeptidase (Plasmodium falciparum 3D7, UniProt Q8IL11); experiment: P. falciparum M17LAP inhibitors, primary screen, biochemical, fluorogenic H-Leu-NHMec substrate, 1536-well (AID 1619); format: functional
T2 sequence (Q8IL11 whole entry): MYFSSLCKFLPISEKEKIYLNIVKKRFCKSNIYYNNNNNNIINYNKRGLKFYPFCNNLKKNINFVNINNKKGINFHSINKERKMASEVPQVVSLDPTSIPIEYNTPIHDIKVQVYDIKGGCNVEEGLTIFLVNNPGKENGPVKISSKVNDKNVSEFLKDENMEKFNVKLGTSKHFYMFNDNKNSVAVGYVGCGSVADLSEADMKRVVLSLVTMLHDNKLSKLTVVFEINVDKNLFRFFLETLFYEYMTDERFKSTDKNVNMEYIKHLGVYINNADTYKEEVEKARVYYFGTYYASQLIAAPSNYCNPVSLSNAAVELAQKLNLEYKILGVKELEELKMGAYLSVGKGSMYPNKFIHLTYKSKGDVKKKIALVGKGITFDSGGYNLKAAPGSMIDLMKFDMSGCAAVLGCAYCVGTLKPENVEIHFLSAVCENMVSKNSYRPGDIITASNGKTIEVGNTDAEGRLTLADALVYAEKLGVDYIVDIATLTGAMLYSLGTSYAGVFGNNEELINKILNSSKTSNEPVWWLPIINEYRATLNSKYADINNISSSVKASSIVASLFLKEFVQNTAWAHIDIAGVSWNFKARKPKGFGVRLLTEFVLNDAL

Procathepsin L = Procathepsin L (Homo sapiens, UniProt P07711); experiment: cathepsin L inhibitors, dose response, counter-screen for M1/M17 aminopeptidase inhibitor project, biochemical, QFRET, 1536-well (AID 2214)
[40] = target: Glycogen synthase kinase-3 beta (Homo sapiens, UniProt P49841); format: functional;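 also: value comes from a broad kinome profiling panel, with GSK3B as the panel member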
[41] = target: Homeodomain-interacting protein kinase 2 (Homo sapiens, UniProt Q9H2X6); format: functional;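 also: measured within a kinome-wide kinase profiling panel, HIPK2 being one panel member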
[42] = target: Tyrosine-protein kinase SYK (Homo sapiens, UniProt P43405); format: functional
[43] = target: Calcium/calmodulin-dependent protein kinase type II subunit beta (Homo sapiens, UniProt Q13554); format: functional
[44] = target: Serine/threonine-protein kinase PLK1 (Homo sapiens, UniProt P53350); format: functional;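 also: PLK1 measured as one member of a kinome-wide profiling panel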
[45] = target: MAP/microtubule affinity-regulating kinase 3 (Homo sapiens, UniProt P27448); format: functional;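 also: MARK3 affinity measured as one member of a kinome panel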
[46] = target: Serine/threonine-protein kinase PLK3 (Homo sapiens, UniProt Q9H4B4); format: functional
[47] = target: Tyrosine-protein kinase BTK (Homo sapiens, UniProt Q06187); format: functional
[48] = target: ALK tyrosine kinase receptor (Homo sapiens, UniProt Q9UM73); format: functional;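 also: ALK tested as one member of a kinase panel screen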
[49] = target: Tyrosine-protein kinase Fyn (Homo sapiens, UniProt P06241); format: functional
[50] = target: Tyrosine-protein kinase Lck (Homo sapiens, UniProt P06239); format: functional;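 also: lck was assayed as one member of a kinase panel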
Focal adhesion kinase 1 = Focal adhesion kinase 1 (Homo sapiens, UniProt Q05397); format: functional;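 also: measured as one member of a kinome panel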
LIM domain kinase 1 = LIM domain kinase 1 (Homo sapiens, UniProt P53667); experiment: Navigating the Kinome. Panel member name: LIMK1; format: functional
[51] = target: Serine/threonine-protein kinase TAO1 (Homo sapiens, UniProt Q7L7X3); format: functional

Chain of Misshapen-like kinase 1 (Q8N4C8 whole entry): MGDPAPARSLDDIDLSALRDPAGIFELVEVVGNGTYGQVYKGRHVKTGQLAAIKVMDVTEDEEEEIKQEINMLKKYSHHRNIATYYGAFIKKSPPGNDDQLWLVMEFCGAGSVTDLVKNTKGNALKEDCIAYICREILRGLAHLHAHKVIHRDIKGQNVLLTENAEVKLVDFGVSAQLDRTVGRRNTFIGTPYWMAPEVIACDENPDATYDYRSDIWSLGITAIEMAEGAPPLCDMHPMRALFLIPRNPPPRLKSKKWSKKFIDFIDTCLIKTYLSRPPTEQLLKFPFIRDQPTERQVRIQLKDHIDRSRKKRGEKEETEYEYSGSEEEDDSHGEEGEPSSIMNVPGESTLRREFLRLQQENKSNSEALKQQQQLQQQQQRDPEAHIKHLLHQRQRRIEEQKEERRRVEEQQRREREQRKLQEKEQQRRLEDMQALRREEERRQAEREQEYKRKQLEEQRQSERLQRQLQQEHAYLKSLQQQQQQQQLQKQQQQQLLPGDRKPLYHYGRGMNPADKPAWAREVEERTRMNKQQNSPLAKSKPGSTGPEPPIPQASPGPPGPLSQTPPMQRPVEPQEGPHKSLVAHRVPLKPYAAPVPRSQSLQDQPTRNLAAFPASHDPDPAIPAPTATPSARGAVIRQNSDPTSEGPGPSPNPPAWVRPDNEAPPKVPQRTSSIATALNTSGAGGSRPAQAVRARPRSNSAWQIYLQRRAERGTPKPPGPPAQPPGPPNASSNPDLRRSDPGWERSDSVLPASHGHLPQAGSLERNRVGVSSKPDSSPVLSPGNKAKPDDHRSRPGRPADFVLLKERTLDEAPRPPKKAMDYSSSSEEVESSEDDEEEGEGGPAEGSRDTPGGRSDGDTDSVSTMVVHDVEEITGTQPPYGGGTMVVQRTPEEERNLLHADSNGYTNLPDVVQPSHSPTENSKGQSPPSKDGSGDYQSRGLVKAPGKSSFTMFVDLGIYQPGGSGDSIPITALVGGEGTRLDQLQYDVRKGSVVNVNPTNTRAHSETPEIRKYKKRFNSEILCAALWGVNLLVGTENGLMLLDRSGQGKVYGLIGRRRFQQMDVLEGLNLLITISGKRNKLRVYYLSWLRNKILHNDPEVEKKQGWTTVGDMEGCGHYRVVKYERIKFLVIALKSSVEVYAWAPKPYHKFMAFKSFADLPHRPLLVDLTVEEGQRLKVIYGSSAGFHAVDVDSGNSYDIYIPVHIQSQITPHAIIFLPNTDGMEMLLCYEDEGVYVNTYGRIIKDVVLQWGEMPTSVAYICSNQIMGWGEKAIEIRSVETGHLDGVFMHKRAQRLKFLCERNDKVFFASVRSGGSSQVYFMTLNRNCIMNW
Chain of Cyclin-dependent kinase 8 (P49336 whole entry): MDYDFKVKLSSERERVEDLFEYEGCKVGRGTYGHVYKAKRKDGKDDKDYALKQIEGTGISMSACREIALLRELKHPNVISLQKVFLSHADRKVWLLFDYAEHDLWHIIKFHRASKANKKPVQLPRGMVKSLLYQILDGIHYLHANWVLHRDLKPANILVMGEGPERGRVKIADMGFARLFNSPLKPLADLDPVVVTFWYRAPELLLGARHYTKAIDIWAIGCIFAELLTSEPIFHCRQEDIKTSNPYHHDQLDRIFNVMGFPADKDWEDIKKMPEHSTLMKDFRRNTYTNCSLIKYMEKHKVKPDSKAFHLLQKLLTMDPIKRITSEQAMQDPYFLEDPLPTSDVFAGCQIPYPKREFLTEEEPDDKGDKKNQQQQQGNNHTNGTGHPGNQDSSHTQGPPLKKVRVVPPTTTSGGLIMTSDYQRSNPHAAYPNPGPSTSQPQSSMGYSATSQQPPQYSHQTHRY
Chain of Serine/threonine-protein kinase pim-1 (P11309 whole entry): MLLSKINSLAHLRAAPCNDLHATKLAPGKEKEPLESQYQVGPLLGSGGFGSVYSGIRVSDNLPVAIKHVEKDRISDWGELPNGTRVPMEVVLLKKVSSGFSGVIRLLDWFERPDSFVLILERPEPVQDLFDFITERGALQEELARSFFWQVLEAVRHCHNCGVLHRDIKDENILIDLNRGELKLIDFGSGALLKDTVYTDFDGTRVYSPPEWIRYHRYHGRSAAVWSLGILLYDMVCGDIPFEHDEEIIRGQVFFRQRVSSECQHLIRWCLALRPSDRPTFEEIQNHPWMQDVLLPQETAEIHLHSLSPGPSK
Chain of Cyclin-dependent kinase 7 (P50613 whole entry): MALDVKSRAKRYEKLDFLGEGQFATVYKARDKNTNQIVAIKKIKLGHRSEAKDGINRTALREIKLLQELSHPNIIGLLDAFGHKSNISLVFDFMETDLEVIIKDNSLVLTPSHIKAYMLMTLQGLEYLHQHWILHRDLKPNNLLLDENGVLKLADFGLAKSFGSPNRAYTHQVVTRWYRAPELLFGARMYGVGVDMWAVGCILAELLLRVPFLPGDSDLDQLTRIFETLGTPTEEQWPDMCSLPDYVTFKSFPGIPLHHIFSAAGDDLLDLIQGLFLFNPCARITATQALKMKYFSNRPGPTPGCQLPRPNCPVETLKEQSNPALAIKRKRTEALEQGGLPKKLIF
Chain of Dual specificity tyrosine-phosphorylation-regulated kinase 3 (O43781 whole entry, canonical isoform): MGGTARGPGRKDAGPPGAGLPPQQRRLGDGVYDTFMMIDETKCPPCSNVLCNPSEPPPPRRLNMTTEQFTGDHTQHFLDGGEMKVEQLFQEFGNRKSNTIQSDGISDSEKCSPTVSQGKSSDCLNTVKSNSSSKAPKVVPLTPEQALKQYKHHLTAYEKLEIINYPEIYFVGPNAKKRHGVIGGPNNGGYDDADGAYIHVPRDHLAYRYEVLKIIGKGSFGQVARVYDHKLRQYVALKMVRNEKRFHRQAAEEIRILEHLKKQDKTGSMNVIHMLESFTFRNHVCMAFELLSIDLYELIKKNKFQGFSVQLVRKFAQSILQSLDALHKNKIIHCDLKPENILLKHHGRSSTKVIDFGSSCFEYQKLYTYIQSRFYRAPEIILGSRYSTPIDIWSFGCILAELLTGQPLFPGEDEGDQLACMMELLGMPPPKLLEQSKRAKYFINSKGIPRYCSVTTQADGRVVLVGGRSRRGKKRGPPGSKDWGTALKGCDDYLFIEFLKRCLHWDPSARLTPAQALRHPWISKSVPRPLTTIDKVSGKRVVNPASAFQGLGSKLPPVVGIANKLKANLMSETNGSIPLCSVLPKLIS
Chain of Protein kinase C iota type (P41743 whole entry): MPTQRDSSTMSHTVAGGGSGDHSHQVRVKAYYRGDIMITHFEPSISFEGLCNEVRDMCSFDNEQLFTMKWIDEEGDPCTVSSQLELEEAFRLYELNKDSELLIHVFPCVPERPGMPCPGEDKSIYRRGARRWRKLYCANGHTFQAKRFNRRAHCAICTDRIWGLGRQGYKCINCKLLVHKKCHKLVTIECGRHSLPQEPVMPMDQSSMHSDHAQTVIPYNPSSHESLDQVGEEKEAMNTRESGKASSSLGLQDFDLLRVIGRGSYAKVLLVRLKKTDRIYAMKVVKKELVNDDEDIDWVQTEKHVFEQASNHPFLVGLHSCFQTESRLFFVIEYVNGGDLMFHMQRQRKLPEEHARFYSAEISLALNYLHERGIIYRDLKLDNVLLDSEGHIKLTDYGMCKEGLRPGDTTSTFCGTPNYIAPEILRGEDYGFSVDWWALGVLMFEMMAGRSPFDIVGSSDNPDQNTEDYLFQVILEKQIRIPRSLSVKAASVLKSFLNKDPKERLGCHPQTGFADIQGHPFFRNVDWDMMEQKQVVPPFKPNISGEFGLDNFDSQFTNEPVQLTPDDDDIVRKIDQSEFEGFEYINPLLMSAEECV
Chain of Wee1-like protein kinase (P30291 whole entry): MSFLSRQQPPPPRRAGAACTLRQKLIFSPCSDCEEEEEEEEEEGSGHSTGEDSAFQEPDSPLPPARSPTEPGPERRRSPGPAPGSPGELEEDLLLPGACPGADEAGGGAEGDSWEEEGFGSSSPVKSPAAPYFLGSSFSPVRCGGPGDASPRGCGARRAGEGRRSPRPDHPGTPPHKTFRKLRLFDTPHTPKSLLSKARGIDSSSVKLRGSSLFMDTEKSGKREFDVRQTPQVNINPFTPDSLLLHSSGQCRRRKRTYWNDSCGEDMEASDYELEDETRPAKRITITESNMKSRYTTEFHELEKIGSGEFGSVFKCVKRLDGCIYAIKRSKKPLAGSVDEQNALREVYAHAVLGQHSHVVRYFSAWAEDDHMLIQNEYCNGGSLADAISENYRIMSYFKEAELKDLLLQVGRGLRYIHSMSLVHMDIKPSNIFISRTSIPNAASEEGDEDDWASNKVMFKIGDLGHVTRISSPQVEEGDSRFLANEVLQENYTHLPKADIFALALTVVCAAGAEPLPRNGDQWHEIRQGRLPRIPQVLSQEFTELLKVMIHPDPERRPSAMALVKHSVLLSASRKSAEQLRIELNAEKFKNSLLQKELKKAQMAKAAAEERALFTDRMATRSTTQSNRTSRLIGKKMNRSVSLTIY
Chain of Procathepsin L (P07711 whole entry): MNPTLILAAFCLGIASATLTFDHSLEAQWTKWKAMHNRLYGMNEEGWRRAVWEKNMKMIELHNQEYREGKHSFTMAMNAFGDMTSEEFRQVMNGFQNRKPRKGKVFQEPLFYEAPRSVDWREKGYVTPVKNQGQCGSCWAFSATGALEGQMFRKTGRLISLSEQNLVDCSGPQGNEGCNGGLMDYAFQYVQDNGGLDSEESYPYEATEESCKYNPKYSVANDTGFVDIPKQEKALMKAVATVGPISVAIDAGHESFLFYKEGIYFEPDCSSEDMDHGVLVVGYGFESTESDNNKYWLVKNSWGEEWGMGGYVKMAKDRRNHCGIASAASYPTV
Chain of Mitogen-activated protein kinase 14 (Q16539 whole entry): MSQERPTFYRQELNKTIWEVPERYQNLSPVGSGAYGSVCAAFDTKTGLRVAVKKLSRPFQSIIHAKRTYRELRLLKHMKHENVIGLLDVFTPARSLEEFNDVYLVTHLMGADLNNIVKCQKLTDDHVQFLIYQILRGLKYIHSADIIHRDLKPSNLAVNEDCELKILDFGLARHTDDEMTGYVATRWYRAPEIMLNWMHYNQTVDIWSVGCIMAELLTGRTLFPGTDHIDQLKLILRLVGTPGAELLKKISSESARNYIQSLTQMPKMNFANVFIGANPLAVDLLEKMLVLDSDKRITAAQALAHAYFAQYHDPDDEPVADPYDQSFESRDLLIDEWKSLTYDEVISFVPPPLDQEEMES

Ki [1]: 10 nM (active)
Ki [2]: 3.98 µM (active)
Ki [3]: 79.4 nM (active)
Ki [4]: > 1 µM (inactive)
Ki [5]: > 1 µM (inactive)
Ki [6]: > 7.94 µM (inactive)
Ki (Wee1-like protein kinase): > 251 nM (inactive)
pKi [7]: 6.9
Ki [8]: 126 nM (active)
Ki [9]: 10 nM (active)
Ki [10]: > 7.94 µM (inactive)
Ki [11]: > 3.98 µM (inactive)
Ki [12]: > 3.98 µM (inactive)
Ki [13]: > 1 µM (inactive)
Ki [14]: > 3.16 µM (inactive)
Ki [15]: > 7.94 µM (inactive)
Ki [16]: 3.98 nM (active)
Ki (Misshapen-like kinase 1): 1 µM (active)
Ki [17]: 7.94 nM (active)
Ki [19]: > 6.31 µM (inactive)
Ki [20]: > 6.31 µM (inactive)
Ki [21]: 398 nM (active)
Ki [22]: > 10 µM (inactive)
Ki [23]: > 5.01 µM (inactive)
Ki [24]: > 7.94 µM (inactive)
Ki [25]: 63.1 nM (active)
Ki [26]: 79.4 nM (active)
Ki [27]: > 7.94 µM (inactive)
Ki [28]: 20 nM (active)
Ki [29]: > 2.51 µM (inactive)
Ki [30]: 316 nM (active)
Ki [31]: 79.4 nM (active)
Ki [32]: > 10 µM (inactive)
Ki [33]: 1.58 µM (active)
Ki [34]: 79.4 nM (active)
Ki [35]: 31.6 nM (active)
Ki [36]: > 1.58 µM (inactive)
Ki [37]: > 7.94 µM (inactive)
Ki [38]: > 1.58 µM (inactive)
SMILES: COc1cc(N2CCC(N3CCN(C)CC3)CC2)ccc1Nc1ncc(Cl)c(Nc2ccccc2S(=O)(=O)C(C)C)n1 [TAE-684]
Ki [18]: > 10 µM (inactive)

SMILES: Cc1cc(C(=O)COC(=O)c2ccc[nH]c2=O)c(C)n1-c1ccc(F)cc1
IC50 (Aspartyl aminopeptidase): > 73.5 µM (not active)
EC50 [39]: 6.22 µM (active)
IC50 (Leucine aminopeptidase): 1.98 µM (active)
IC50 (Procathepsin L): > 59.6 µM (not active)

Ki [40]: 3.98 µM (active)
Ki [41]: 3.16 µM (active)
Ki (Misshapen-like kinase 1): 6.31 µM (active)
Ki [42]: 1.26 µM (active)
Ki [43]: 6.31 µM (active)
Ki [44]: 2.51 µM (active)
Ki [45]: 3.98 µM (active)
Ki [46]: 3.16 µM (active)
SMILES: Cc1ccc(Nc2c(C(=O)O)n(CCCOc3cccc4ccccc34)c3cccc(-c4ccccc4C)c23)cc1

Ki [12]: 1.58 µM (active)
Ki [47]: > 6.31 µM (inactive)
Ki [48]: > 6.31 µM (inactive)
Ki [49]: > 6.31 µM (inactive)
Ki [50]: > 6.31 µM (inactive)
Ki (Focal adhesion kinase 1): > 6.31 µM (inactive)
Ki [37]: > 6.31 µM (inactive)
Ki (LIM domain kinase 1): 501 nM (active)
Ki [51]: > 6.31 µM (inactive)
SMILES: CC(C)(C)c1cc(NC(=O)C(=O)c2cccc3ccccc23)n(-c2ccc(OCC(=O)NCCO)cc2)n1
